Data from publication PMC5363373, “Zirconium tetraazamacrocycle complexes display extraordinary stability and provide a new strategy for zirconium-89-based radiopharmaceutical development” (Chemical Science, 2016).

Columns and labels:
PET/CT imaging = assay type: in vivo, female NIH Swiss mice; conditions: normal mice; for Route of excretion: PET imaging; for PET: radioactivity at 4 h after injection / PET: radioactivity at 24 h after injection: static imaging
Description: PET/CT Imaging. PET imaging with 89Zr-DFO or 89Zr-DOTA was performed on healthy female NIH Swiss mice (6-8 wk old, n=6) using a small animal PET/CT scanner (eXplore VISTA model, GE Healthcare, Waukesha, WI). Before imaging, each mouse was anesthetized by inhalation of isoflurane mixed with oxygen gas (3% isoflurane for induction and 1-2% for maintenance) and a tail vein catheter was placed on the tail. The mouse was then positioned in the imaging cradle and a CT scan was performed for the subsequent attenuation correction and anatomical colocalization. After the CT scan, 89Zr-DFO or 89Zr-DOTA (11.1-12.5 MBq (300-338 µCi) in 100 µL saline/ mouse) was administered through the tail vein catheter, and a dynamic PET scan was simultaneously initiated and acquired for 1 hour to record the initial distribution and pharmacokinetics. Mice were re-anesthetized at 2, 4 and 24 hours, and a static PET scan was acquired for 20 min as late-phase scans. PET images were reconstructed using 2D ordered subset expectation maximization (2D-OSEM) algorithms with random, scatter, and attenuation corrections and then coregistered with the CT image. The PET system was calibrated using a Zr-89 phantom with known activity. Standard uptake value (SUV = [(nCi/mL) x (animal wt. (g))/ injected dose (nCi)]) and the measure of %ID/g was then calculated voxel-wise with the calibration factor and normalization to the injected dose and animal body weight. For dynamic scans, data were binned into 19 time frames with the following schemes: 6x10s, 2x30s, 3x60s, 5x5min, 3x10min. The tissue uptake curves were generated from the dynamic scans with regions of interest (ROIs) manually placed in heart, liver, kidney, bone, and muscle. Biodistribution data at 2, 4 and 24 hours were obtained from the PET images, with regions of interest placed in corresponding organs or tissues.

[1] = Behaviour of the complex in solution in vitro; assay type: physicochemical; conditions: unless a low concentration of surfactant was included

Compound | Route of excretion (PET/CT imaging) | PET: radioactivity at 4 h after injection (PET/CT imaging) | PET: radioactivity at 24 h after injection (PET/CT imaging) | Behaviour in solution without surfactant [1]
O=C1CN2CCN3CCN4CCN(CC2)CC(=O)[O][89Zr]([O]1)([O]C(=O)C3)[O]C(=O)C4 [89Zr-DOTA] | excreted renally | nearly all the radioactivity was excreted | barely above background levels | 
NC(=O)CN1CCN(CC(N)=O)CCN(CC(N)=O)CCN(CC(N)=O)CC1.[89Zr+4] [89Zr-DOTAM] |  |  |  | aggregated and precipitated out of solution
CC(=O)N1CCCCCNC(=O)CCC(=O)N2CCCCCNC(=O)CCC(=O)N(CCCCCN)[O][89Zr+]([O]1)[O]2 [89Zr-DFO, reference compound] | excreted renally | more radioactivity accumulated in the kidneys | still visible | 
